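Cultured in 96-well plates, cells were exposed to test compound for 48 hours across five concentrations. TGI marks complete inhibition of growth.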
Columns and labels:
Assay in all cases: NCI-60 cell line screen, 48 h
786-0 renal = tested on: 786-0 renal
A498 renal = tested on: A498 renal
A549 NSCLC = tested on: A549 NSCLC
ACHN renal = tested on: ACHN renal
CAKI-1 renal = tested on: CAKI-1 renal
CCRF-CEM leukemia = tested on: CCRF-CEM leukemia
COLO 205 colon = tested on: COLO 205 colon
DU-145 prostate = tested on: DU-145 prostate
EKVX NSCLC = tested on: EKVX NSCLC
HCC-2998 colon = tested on: HCC-2998 colon
HCT-116 colon = tested on: HCT-116 colon
HCT-15 colon = tested on: HCT-15 colon
HOP-62 NSCLC = tested on: HOP-62 NSCLC
HOP-92 NSCLC = tested on: HOP-92 NSCLC
HS 578T breast = tested on: HS 578T breast
HT29 colon = tested on: HT29 colon
IGROV1 ovarian = tested on: IGROV1 ovarian
K-562 leukemia = tested on: K-562 leukemia
KM12 colon = tested on: KM12 colon
LOX IMVI melanoma = tested on: LOX IMVI melanoma
M14 melanoma = tested on: M14 melanoma
MALME-3M melanoma = tested on: MALME-3M melanoma
MCF7 breast = tested on: MCF7 breast
MDA-MB-231 breast = tested on: MDA-MB-231 breast
MDA-MB-435 = tested on: MDA-MB-435
MDA-N = tested on: MDA-N
MOLT-4 leukemia = tested on: MOLT-4 leukemia
NCI-H226 lung = tested on: NCI-H226 lung
NCI-H23 lung = tested on: NCI-H23 lung
NCI-H460 lung = tested on: NCI-H460 lung
NCI-H522 lung = tested on: NCI-H522 lung
NCI/ADR-RES ovarian = tested on: NCI/ADR-RES ovarian
OVCAR-3 ovarian = tested on: OVCAR-3 ovarian
OVCAR-4 ovarian = tested on: OVCAR-4 ovarian
OVCAR-5 ovarian = tested on: OVCAR-5 ovarian
OVCAR-8 ovarian = tested on: OVCAR-8 ovarian
PC-3 prostate = tested on: PC-3 prostate
RPMI-8226 leukemia = tested on: RPMI-8226 leukemia
RXF 393 renal = tested on: RXF 393 renal
SF-268 CNS = tested on: SF-268 CNS
SF-295 CNS = tested on: SF-295 CNS
SF-539 CNS = tested on: SF-539 CNS
SK-MEL-2 melanoma = tested on: SK-MEL-2 melanoma
SK-MEL-28 melanoma = tested on: SK-MEL-28 melanoma
SK-MEL-5 melanoma = tested on: SK-MEL-5 melanoma
SK-OV-3 ovarian = tested on: SK-OV-3 ovarian
SN12C renal = tested on: SN12C renal
SNB-19 CNS = tested on: SNB-19 CNS
SNB-75 CNS = tested on: SNB-75 CNS
SR leukemia = tested on: SR leukemia
SW-620 colon = tested on: SW-620 colon
T-47D breast = tested on: T-47D breast
TK-10 renal = tested on: TK-10 renal
U251 CNS = tested on: U251 CNS
UACC-257 melanoma = tested on: UACC-257 melanoma
UACC-62 melanoma = tested on: UACC-62 melanoma
UO-31 renal = tested on: UO-31 renal
HL-60(TB) leukemia = tested on: HL-60(TB) leukemia

Cc1[nH]n(-c2ncc(C#N)c(=O)[nH]2)c(=O)c1CCO
TGI (786-0 renal): > 100 µM
TGI (A498 renal): > 100 µM
TGI (A549 NSCLC): > 100 µM
TGI (ACHN renal): > 100 µM
TGI (CAKI-1 renal): > 100 µM
TGI (CCRF-CEM leukemia): > 100 µM
TGI (COLO 205 colon): > 100 µM
TGI (DU-145 prostate): > 100 µM
TGI (EKVX NSCLC): > 100 µM
TGI (HCC-2998 colon): > 100 µM
TGI (HCT-116 colon): > 100 µM
TGI (HCT-15 colon): > 100 µM
TGI (HOP-62 NSCLC): > 100 µM
TGI (HOP-92 NSCLC): > 100 µM
TGI (HS 578T breast): > 100 µM
TGI (HT29 colon): > 100 µM
TGI (IGROV1 ovarian): > 100 µM
TGI (K-562 leukemia): > 100 µM
TGI (KM12 colon): > 100 µM
TGI (LOX IMVI melanoma): > 100 µM
TGI (M14 melanoma): > 100 µM
TGI (MALME-3M melanoma): > 100 µM
TGI (MCF7 breast): > 100 µM
TGI (MDA-MB-231 breast): > 100 µM
TGI (MDA-MB-435): > 100 µM
TGI (MDA-N): > 100 µM
TGI (MOLT-4 leukemia): > 100 µM
TGI (NCI-H226 lung): > 100 µM
TGI (NCI-H23 lung): > 100 µM
TGI (NCI-H460 lung): > 100 µM
TGI (NCI-H522 lung): > 100 µM
TGI (NCI/ADR-RES ovarian): > 100 µM
TGI (OVCAR-3 ovarian): > 100 µM
TGI (OVCAR-4 ovarian): > 100 µM
TGI (OVCAR-5 ovarian): > 100 µM
TGI (OVCAR-8 ovarian): > 100 µM
TGI (PC-3 prostate): > 100 µM
TGI (RPMI-8226 leukemia): > 100 µM
TGI (RXF 393 renal): > 100 µM
TGI (SF-268 CNS): > 100 µM
TGI (SF-295 CNS): > 100 µM
TGI (SF-539 CNS): > 100 µM
TGI (SK-MEL-2 melanoma): > 100 µM
TGI (SK-MEL-28 melanoma): > 100 µM
TGI (SK-MEL-5 melanoma): > 100 µM
TGI (SK-OV-3 ovarian): > 100 µM
TGI (SN12C renal): > 100 µM
TGI (SNB-19 CNS): > 100 µM
TGI (SNB-75 CNS): 99 µM
TGI (SR leukemia): > 100 µM
TGI (SW-620 colon): > 100 µM
TGI (T-47D breast): > 100 µM
TGI (TK-10 renal): > 100 µM
TGI (U251 CNS): > 100 µM
TGI (UACC-257 melanoma): > 100 µM
TGI (UACC-62 melanoma): > 100 µM
TGI (UO-31 renal): > 100 µM

Nc1c(N2CCCCC2)c(=O)nc2[nH]/c(=C\c3ccco3)c(=O)n12
TGI (786-0 renal): > 100 µM
TGI (A498 renal): > 100 µM
TGI (A549 NSCLC): > 100 µM
TGI (ACHN renal): > 100 µM
TGI (CAKI-1 renal): > 100 µM
TGI (CCRF-CEM leukemia): > 100 µM
TGI (COLO 205 colon): > 100 µM
TGI (DU-145 prostate): > 100 µM
TGI (EKVX NSCLC): > 100 µM
TGI (HCT-116 colon): > 100 µM
TGI (HCT-15 colon): > 100 µM
TGI (HL-60(TB) leukemia): > 100 µM
TGI (HOP-92 NSCLC): > 100 µM
TGI (HS 578T breast): > 100 µM
TGI (HT29 colon): > 100 µM
TGI (IGROV1 ovarian): > 100 µM
TGI (K-562 leukemia): > 100 µM
TGI (KM12 colon): > 100 µM
TGI (LOX IMVI melanoma): > 100 µM
TGI (M14 melanoma): > 100 µM
TGI (MALME-3M melanoma): > 100 µM
TGI (MDA-MB-231 breast): > 100 µM
TGI (MDA-MB-435): > 100 µM
TGI (MDA-N): > 100 µM
TGI (MOLT-4 leukemia): > 100 µM
TGI (NCI-H226 lung): > 100 µM
TGI (NCI-H23 lung): > 100 µM
TGI (NCI-H522 lung): > 100 µM
TGI (NCI/ADR-RES ovarian): > 100 µM
TGI (OVCAR-4 ovarian): > 100 µM
TGI (OVCAR-5 ovarian): > 100 µM
TGI (OVCAR-8 ovarian): > 100 µM
TGI (RPMI-8226 leukemia): > 100 µM
TGI (RXF 393 renal): > 100 µM
TGI (SF-268 CNS): > 100 µM
TGI (SF-295 CNS): > 100 µM
TGI (SF-539 CNS): > 100 µM
TGI (SK-MEL-28 melanoma): > 100 µM
TGI (SK-MEL-5 melanoma): > 100 µM
TGI (SK-OV-3 ovarian): > 100 µM
TGI (SN12C renal): > 100 µM
TGI (SNB-19 CNS): > 100 µM
TGI (SNB-75 CNS): > 100 µM
TGI (SR leukemia): > 100 µM
TGI (SW-620 colon): > 100 µM
TGI (T-47D breast): > 100 µM
TGI (TK-10 renal): > 100 µM
TGI (U251 CNS): > 100 µM
TGI (UACC-257 melanoma): > 100 µM
TGI (UO-31 renal): > 100 µM
